± gives the expanded uncertainty stated by the source.
Legend:
[1] = refractive index (Na D-line) (dimensionless); conditions: 298.15 K; 101.33 kPa; Liquid
[2] = Liquid; for mass density / speed of sound: 298.15 K, 101.33 kPa; for vapor or sublimation pressure: Ebulliometric method (Recirculating still)
[3] = refractive index (Na D-line) (dimensionless); xn = mol fraction of the nth substance listed; conditions: 298.15 K, 101 kPa, Liquid
[4] = xn = mol fraction of the nth substance listed; conditions: 298.15 K, 101 kPa, Liquid

SMILES: CCOC(C)=O [ethyl acetate]
- refractive index [1]: 1.36978 ± 0.0012
- mass density [2]: 894.29 ± 0.34 kg/m3
- speed of sound [2]: 1138 ± 3 m/s
- vapor or sublimation pressure ([2]; 350.25 K): 101.3 ± 1 kPa

SMILES: COC(C)=O [methyl ethanoate]
- refractive index [1]: 1.35865 ± 0.0012
- mass density [2]: 926.96 ± 0.3 kg/m3
- speed of sound [2]: 1148 ± 3 m/s
- vapor or sublimation pressure ([2]; 330.03 K): 101.3 ± 1 kPa

SMILES: CCOC(=O)C(C)O (stereo not drawn) [DL-ethyl lactate] + CCOC(C)=O
- refractive index ([3]; x2 = 0.049): 1.4088 ± 0.0012
- refractive index ([3]; x2 = 0.1): 1.40722 ± 0.0012
- refractive index ([3]; x2 = 0.15): 1.40535 ± 0.0012
- refractive index ([3]; x2 = 0.2): 1.40357 ± 0.0012
- refractive index ([3]; x2 = 0.251): 1.40168 ± 0.0012
- refractive index ([3]; x2 = 0.3): 1.40005 ± 0.0012
- refractive index ([3]; x2 = 0.35): 1.39819 ± 0.0012
- refractive index ([3]; x2 = 0.4): 1.39623 ± 0.0012
- refractive index ([3]; x2 = 0.45): 1.39451 ± 0.0012
- refractive index ([3]; x2 = 0.5): 1.39263 ± 0.0012
- refractive index ([3]; x2 = 0.55): 1.3906 ± 0.0012
- refractive index ([3]; x2 = 0.6): 1.38855 ± 0.0012
- refractive index ([3]; x2 = 0.65): 1.38645 ± 0.0013
- refractive index ([3]; x2 = 0.7): 1.3842 ± 0.0013
- refractive index ([3]; x2 = 0.756): 1.38126 ± 0.0013
- refractive index ([3]; x2 = 0.8): 1.37923 ± 0.0013
- refractive index ([3]; x2 = 0.849): 1.37694 ± 0.0013
- refractive index ([3]; x2 = 0.9): 1.3747 ± 0.0013
- refractive index ([3]; x2 = 0.95): 1.3722 ± 0.0013
- mass density ([4]; x2 = 0.049): 1022.5 ± 0.34 kg/m3
- speed of sound ([4]; x2 = 0.049): 1267 ± 3 m/s
- mass density ([4]; x2 = 0.1): 1016.77 ± 0.34 kg/m3
- speed of sound ([4]; x2 = 0.1): 1263 ± 3 m/s
- mass density ([4]; x2 = 0.15): 1010.85 ± 0.34 kg/m3
- speed of sound ([4]; x2 = 0.15): 1256 ± 3 m/s
- mass density ([4]; x2 = 0.2): 1004.94 ± 0.34 kg/m3
- speed of sound ([4]; x2 = 0.2): 1249 ± 3 m/s
- mass density ([4]; x2 = 0.251): 998.8 ± 0.34 kg/m3
- speed of sound ([4]; x2 = 0.251): 1243 ± 3 m/s
- mass density ([4]; x2 = 0.3): 992.68 ± 0.35 kg/m3
- speed of sound ([4]; x2 = 0.3): 1236 ± 3 m/s
- mass density ([4]; x2 = 0.35): 986.4 ± 0.36 kg/m3
- speed of sound ([4]; x2 = 0.35): 1229 ± 3 m/s
- mass density ([4]; x2 = 0.4): 979.87 ± 0.36 kg/m3
- speed of sound ([4]; x2 = 0.4): 1222 ± 3 m/s
- mass density ([4]; x2 = 0.45): 973.59 ± 0.36 kg/m3
- speed of sound ([4]; x2 = 0.45): 1215 ± 3 m/s
- mass density ([4]; x2 = 0.5): 966.98 ± 0.37 kg/m3
- speed of sound ([4]; x2 = 0.5): 1208 ± 3 m/s
- mass density ([4]; x2 = 0.55): 960.41 ± 0.38 kg/m3
- speed of sound ([4]; x2 = 0.55): 1201 ± 3 m/s
- mass density ([4]; x2 = 0.6): 953.46 ± 0.39 kg/m3
- speed of sound ([4]; x2 = 0.6): 1194 ± 3 m/s
- mass density ([4]; x2 = 0.65): 946.64 ± 0.4 kg/m3
- speed of sound ([4]; x2 = 0.65): 1188 ± 3 m/s
- mass density ([4]; x2 = 0.7): 939.6 ± 0.41 kg/m3
- speed of sound ([4]; x2 = 0.7): 1180 ± 3 m/s
- mass density ([4]; x2 = 0.756): 931.41 ± 0.42 kg/m3
- speed of sound ([4]; x2 = 0.756): 1173 ± 3 m/s
- mass density ([4]; x2 = 0.8): 924.84 ± 0.42 kg/m3
- speed of sound ([4]; x2 = 0.8): 1167 ± 3 m/s
- mass density ([4]; x2 = 0.849): 917.72 ± 0.43 kg/m3
- speed of sound ([4]; x2 = 0.849): 1160 ± 3 m/s
- mass density ([4]; x2 = 0.9): 910.03 ± 0.44 kg/m3
- speed of sound ([4]; x2 = 0.9): 1153 ± 3 m/s
- mass density ([4]; x2 = 0.95): 902.37 ± 0.45 kg/m3
- speed of sound ([4]; x2 = 0.95): 1145 ± 3 m/s

SMILES: CCOC(=O)C(C)O (stereo not drawn) [DL-ethyl lactate] + COC(C)=O
- refractive index ([3]; x2 = 0.058): 1.40872 ± 0.0012
- refractive index ([3]; x2 = 0.1): 1.40699 ± 0.0012
- refractive index ([3]; x2 = 0.15): 1.40595 ± 0.0012
- refractive index ([3]; x2 = 0.2): 1.40379 ± 0.0012
- refractive index ([3]; x2 = 0.25): 1.4023 ± 0.0012
- refractive index ([3]; x2 = 0.3): 1.39968 ± 0.0013
- refractive index ([3]; x2 = 0.35): 1.39787 ± 0.0012
- refractive index ([3]; x2 = 0.4): 1.39628 ± 0.0012
- refractive index ([3]; x2 = 0.45): 1.39379 ± 0.0013
- refractive index ([3]; x2 = 0.5): 1.39125 ± 0.0013
- refractive index ([3]; x2 = 0.55): 1.3879 ± 0.0013
- refractive index ([3]; x2 = 0.6): 1.38498 ± 0.0013
- refractive index ([3]; x2 = 0.65): 1.38197 ± 0.0013
- refractive index ([3]; x2 = 0.7): 1.37916 ± 0.0013
- refractive index ([3]; x2 = 0.75): 1.37601 ± 0.0013
- refractive index ([3]; x2 = 0.8): 1.37278 ± 0.0013
- refractive index ([3]; x2 = 0.85): 1.3696 ± 0.0013
- refractive index ([3]; x2 = 0.9): 1.36642 ± 0.0013
- refractive index ([3]; x2 = 0.95): 1.36248 ± 0.0013
- mass density ([4]; x2 = 0.058): 1024.62 ± 0.28 kg/m3
- speed of sound ([4]; x2 = 0.058): 1272 ± 3 m/s
- mass density ([4]; x2 = 0.1): 1021.03 ± 0.27 kg/m3
- speed of sound ([4]; x2 = 0.1): 1266 ± 3 m/s
- mass density ([4]; x2 = 0.15): 1017.3 ± 0.26 kg/m3
- speed of sound ([4]; x2 = 0.15): 1261 ± 3 m/s
- mass density ([4]; x2 = 0.2): 1013.63 ± 0.26 kg/m3
- speed of sound ([4]; x2 = 0.2): 1255 ± 3 m/s
- mass density ([4]; x2 = 0.25): 1009.78 ± 0.27 kg/m3
- speed of sound ([4]; x2 = 0.25): 1250 ± 3 m/s
- mass density ([4]; x2 = 0.3): 1005.46 ± 0.28 kg/m3
- speed of sound ([4]; x2 = 0.3): 1244 ± 3 m/s
- mass density ([4]; x2 = 0.35): 1001.13 ± 0.28 kg/m3
- speed of sound ([4]; x2 = 0.35): 1238 ± 3 m/s
- mass density ([4]; x2 = 0.4): 996.59 ± 0.28 kg/m3
- speed of sound ([4]; x2 = 0.4): 1232 ± 3 m/s
- mass density ([4]; x2 = 0.45): 992.2 ± 0.28 kg/m3
- speed of sound ([4]; x2 = 0.45): 1226 ± 3 m/s
- mass density ([4]; x2 = 0.5): 987.41 ± 0.29 kg/m3
- speed of sound ([4]; x2 = 0.5): 1220 ± 3 m/s
- mass density ([4]; x2 = 0.55): 982.34 ± 0.29 kg/m3
- speed of sound ([4]; x2 = 0.55): 1213 ± 3 m/s
- mass density ([4]; x2 = 0.6): 977.25 ± 0.3 kg/m3
- speed of sound ([4]; x2 = 0.6): 1207 ± 3 m/s
- mass density ([4]; x2 = 0.65): 972.03 ± 0.31 kg/m3
- speed of sound ([4]; x2 = 0.65): 1200 ± 3 m/s
- mass density ([4]; x2 = 0.7): 966.3 ± 0.32 kg/m3
- speed of sound ([4]; x2 = 0.7): 1193 ± 3 m/s
- mass density ([4]; x2 = 0.75): 960.47 ± 0.32 kg/m3
- speed of sound ([4]; x2 = 0.75): 1186 ± 3 m/s
- mass density ([4]; x2 = 0.8): 954.34 ± 0.33 kg/m3
- speed of sound ([4]; x2 = 0.8): 1180 ± 3 m/s
- mass density ([4]; x2 = 0.85): 947.87 ± 0.34 kg/m3
- speed of sound ([4]; x2 = 0.85): 1172 ± 3 m/s
- mass density ([4]; x2 = 0.9): 941.28 ± 0.35 kg/m3
- speed of sound ([4]; x2 = 0.9): 1164 ± 3 m/s
- mass density ([4]; x2 = 0.95): 934.27 ± 0.36 kg/m3
- speed of sound ([4]; x2 = 0.95): 1157 ± 3 m/s

SMILES: CCOC(=O)C(C)O (racemic) [DL-ethyl lactate]
- refractive index [1]: 1.4105 ± 0.0012
- mass density [2]: 1028.02 ± 0.27 kg/m3
- speed of sound [2]: 1277 ± 3 m/s
- vapor or sublimation pressure ([2]; 424.98 K): 101.3 ± 1 kPa

From the NIST ThermoML archive (doi:10.1021/je060052p)
